According to patent publication US8722652B2, “Acute treatment of social phobia” (Pherin Pharmaceuticals, Inc., priority 2005, dated 2014):

Tests used:
Assay type in all cases: in vivo, human
[1] = test system: patients diagnosed with generalized anxiety disorder; assay: Acute anxiety symptom scores (HAM-A, COVI, CGI) after delivery to the vomeronasal organ of patients with generalized anxiety disorder
[2] = test system: patients diagnosed with generalized social phobia; assay: Phase-2 randomized double-blind study: public speaking and social interaction challenges in social phobia patients, intranasal spray
Text: A Phase-2 Randomized, Double-blind, Crossover Study of the Use of Single Doses of [3β]-Androsta-4,16-dien-3-ol for Management of the Symptoms of Social phobia
The following describes a study of the effects of the vomeropherin [3β]-androsta-4,16-dien-3-ol on human female patients suffering from social phobia.
The study comprised 40 patients with clinical diagnosis of Social Phobia. Each patient was randomly assigned to one of the following double-blind treatment groups: 800 nanogram [3β]-Androsta-4,16-dien-3-ol or placebo delivered intranasally in spray form. Each patient participated in the Treatment Phase as follows.
First Visit: the patient visited the study center and the following activities were conducted during this visit: Pre-Challenge: After arrival at the study center, the patient completed self-reports of their usual anxiety symptoms. Public Speaking Challenge: The patient was administered a spray (50 microliters) of placebo to each nostril, and the procedures for the Public Speaking Challenge were then explained to the patient. The patient was given four minutes to prepare one of several topics for a four-minute speech, without notes, in front of an audience of several people who evaluated the speech and videotaped it. Immediately after completing the preparation period, the patient completed self-reports of their anticipatory anxiety and the Investigator then rated the patient's anticipatory anxiety. The patient gave their speech. Immediately after completing the speech, the patient completed self-reports of anxiety experienced during the speech. The Investigator then rated the anxiety experienced by the patient. Social Interaction Challenge: Approximately one hour after completion of the Public Speaking Challenge, the patient was administered another dose of placebo in each nostril, and the procedures for a Social Interaction Challenge appropriate for one of the patient's most-feared social interaction situations were then described to the patient. Then, the patient completed self-reports of their anticipatory anxiety and the Investigator rated the patient's anticipatory anxiety. Then, the patient participated in a four-minute mock social interaction while being observed by several raters and videotaped. Immediately after completing the social interaction, the patient completed self-reports of anxiety experienced during the interaction. Then, the Investigator rated the anxiety experienced by the patient. Those patients that during the first visit responded to placebo during the public speaking or the social interaction challenge were terminated from the study at that time. Patients non-responding to placebo during the first visit participated in a second visit where they were randomly dosed again with placebo, or with 800 nanograms androsta-4,16-dien-3β-ol per nostril (total dose=1,600 nanograms) delivered in spray form. Each patient was challenged and also the anxiety symptoms were scores using the same procedure performed during first visit.
The mean score obtained during the first visit (baseline scores) for each, anticipatory public speaking, performance public speaking, anticipatory social interaction and performance social interaction, was subtracted from the mean score (same parameter) obtained during the second visit. The result is a measure of symptom improvement.

vomeronasal receptors = assay: Electrovomerogram dose-response (mass receptor potential of the vomeronasal receptors), local aerosol delivery with Multifunctional Miniprobe
Method: The effective amount of androsta-4,16-dien-3β-ol administered was determined in dose-response studies where the amplitude of the mass receptor potential of the vomeronasal receptors (electrogram of the vomeronasal organ or electrovomerogram) was recorded from volunteers diagnosed with generalized anxiety disorder (GAD), while locally delivering different concentrations of the steroid in aerosol form, using a Multifunctional Miniprobe® described in U.S. Pat. No. 5,303,703. This electrovomerogram allows precise measuring of the concentration dependent effect of locally delivered androsta-4,16-dien-3β-ol to vomeronasal receptors, and calculation of the half-maximal concentration, the Effective Concentration 50 (EC50).
Androsta-4,16-dien-3β-ol was delivered directly to the vomeronasal organ pit of anxious patients using the Multifunctional Miniprobe®, consisting of a concentric arrangement of Teflon® tubes having an inner non-polarized silver wire recording-electrode. […] The electrovomerogram recorded with the surface silver-wire electrode was electronically amplified and continuously monitored in a computer and a dose-response curve was obtained by plotting the peak amplitude of electrovomerograms produced by several different amounts of androsta-4,16-dien-3β-ol (ranging from 0 (control) to 1000 picograms). […]

[3] = 1 nanogram to the vomeronasal organ, GAD patients n = 20
[4] = 1600 nanogram intranasally, n = 40, Mean Baseline Score − Mean Score After Treatment

Structure (SMILES): C[C@@]12C=CC[C@H]1[C@@H]1CCC3=C[C@@H](O)CC[C@]3(C)[C@H]1CC2 [androsta-4,16-dien-3β-ol]
- Mean acute symptom improvement, CGI (Mean Baseline Score − Mean Score after Treatment) [1, 3]: 1.17
- Mean acute symptom improvement, COVI (Mean Baseline Score − Mean Score after Treatment) [1, 3]: 2.8
- Mean acute symptom improvement, HAM-A (Mean Baseline Score − Mean Score after Treatment) [1, 3]: 10.6
- Acute anxiety symptoms scores (HAM-A, COVI, CGI) ([1]; concentrations above the EC50, 20 human female GAD patients, effect lasting 30 minutes after intranasal administration): significantly reduced
- Anticipatory and Performance anxiety scores ([2]; 5 minutes after administration, Social Interaction and Public Speaking): notably and significantly decreased
- Mean Symptom Improvement, Anticipatory Public Speaking Anxiety [2, 4]: 10.417
- Mean Symptom Improvement, Anticipatory Social Interaction Anxiety [2, 4]: 12.166
- Mean Symptom Improvement, Performance Public Speaking Anxiety [2, 4]: 26.294
- Mean Symptom Improvement, Performance Social Interaction Anxiety [2, 4]: 14.197
- Symptom improvement versus placebo ([2]; second visit versus first-visit baseline scores): much greater and significant symptom improvement than placebo
- EC50 (half-maximal concentration, electrovomerogram peak amplitude) (vomeronasal receptors; delivered directly to vomeronasal organ pit, aerosol from propylene glycol, GAD volunteers): 0.5 nanograms
- KD (vomeronasal receptors; set equal to EC50 (linear receptor occupancy-response, model of A. J. Clark)): 0.5 ng
